Data as given in patent publication US20150272955A1, “Triazolo[4,5-D]Pyrimidine Compounds For Treatment Of Abdominal Aortic Aneurysms” (AstraZeneca AB, priority 2007, published 2015).
Entries after “also recorded” stand apart in the source; their conditions may differ.

Tests used:
[1] = tested on: experimental aortic aneurysms (mural thrombus and aneurysmal wall); experiment: AAA model: histological and immunohistochemical analysis of aneurysm; assay type: in vivo, rat
Source text: (§1) Experimental aortic aneurysms were induced by implanting a segment of sodium dodecyl sulfate-decellularized guinea-pig aorta (xenogenic matrix) in rat aortas (Allaire E. et al. (1994), J Vasc Surg 19:446-456). This AAA model is characterized by immuno-inflammatory injury of the xenogeneic extracellular matrix (Allaire E et al. (1997), Surgery 122:73-81; Allaire E et al. (1996), Transplantation 62:794-803). Briefly, 46 male Lewis rats (250 g) and 46 guinea-pigs (280 g) (Iffa Credo, Lyon, France) were housed according to the principles of Laboratory Animal Care formulated by the European Union. Animals were anaesthetized by intraperitoneal injection of pentobarbital (5 mg/100 g body weight). Guinea-pig infrarenal aortas (1.5 cm) were sampled and decellularized by sodium dodecyl sulfate treatment to obtain tubes of intact extracellular matrix, which were orthotopically transplanted into the aorta of Lewis rats with 10/0 nylon interrupted sutures (xenograft) (Allaire et al., 1997; Allaire et al., 1996). The initial diameter of the graft was measured in situ, immediately after unclamping, under a binocular microscope. After 24 h, rats were randomly assigned to two equal groups, treated with Compound (A) (10 mg/kg body weight twice daily by oral administration) or with the diluent of Compound (A) (1% carboxymethylcellulose/0.1% Tween-80 in water) for 10 days (D10, n=9 for each group) or 6 weeks (D42, n=14 for each group). At sacrifice, rats were deeply anesthetized, the graft diameter was measured again, and the aorta was dissected out and fixed in 4% paraformaldehyde. Aortic samples were embedded in paraffin and cut at 5 μm.
Sections were stained with picro Sirius red to visualize collagen and fibrin and with orcein to visualize elastin. Immunohistochemistry was performed using anti-human α-actin (dilution 1:500, Dako, Trappes, France), anti-CD68 (macrophages, dilution 1:1000, Serotec, Cergy Saint-Christophe, France), anti-rat polymorphonuclear leukocytes (dilution 1:3000, Cedarlane, Ontario, Canada), anti-CD41 (integrin αIIb, platelets, dilution 1:50, Santa Cruz Biotechnologies) and anti-MMP-9 (dilution 1:50, Calbiochem, Darmstadt, Germany) as primary antibodies and a peroxidase Vector ABC kit for detection (Vector Labs, Burlingame, Calif., USA). Cells were counted with a grid in the microscope eyepiece and averaged in 4 symmetrical fields on the same slide. The size of the areas represented by thrombus, elastic fiber, AAA wall, and MMP-9- and CD41-positive staining were measured by morphometric analysis using Histolab software (Microvision Instruments, Evly, France). Thrombus areas were determined on Sirius red slides. The area occupied by positive staining was quantified by the color detecting mode of the computer program in the inner thrombus and outer wall.
(§2) Results are expressed as means±S.D. The percentage of diameter increase was calculated as follows: (diameter at harvest−diameter at grafting)×100/diameter at grafting. Comparisons between the two groups were made using the nonparametric Mann-Whitney U test (Statview, version 4.5). The frequency of aneurysms of large diameter in the different groups was analyzed by X^2 test. Simple regression analysis was used to test for correlations between various parameters. P<0.05 was considered significant.

[2] = tested on: experimental aortic aneurysms (decellularized guinea-pig aorta xenograft in rat aorta); experiment: AAA model: external aneurysmal diameter after xenograft implantation; assay type: in vivo
Source text: as §1, §2

[3] = Day 42, 10 mg/kg twice daily oral

## CCCSc1nc(N[C@@H]2C[C@H]2c2ccc(F)c(F)c2)c2nnn([C@@H]3C[C@H](OCCO)[C@@H](O)[C@H]3O)c2n1 (relative stereo) [Compound (A), {1S-[1α,2α,3β(1S*,2R*),5β]}-3-(7-{[2-(3,4-difluorophenyl)cyclopropyl]amino}-5-(propylthio)-3H-1,2,3-triazolo[4,5-d]pyrimidin-3-yl)-5-(2-hydroxyethoxyl)cyclopentane-1,2-diol]
[1]; Day 10, 10 mg/kg twice daily oral
  thrombus area/wall area: 0.07±0.05
[1]; [3]
  thrombus area/wall area: 0.35±0.44
[1]; Day 42, P=0.005 vs control
  CD41-positive area (platelet marker) within the thrombus: 0.13±0.16
[1]; Day 42, immunostaining
  MMP-9-positive area in the thrombus and the wall: markedly reduced
[1]; Day 42, intragroup analysis
  slope (s) of correlation between thrombus area and aneurysm diameter: 0.17
[1]; Days 10 and 42
  infiltration of PMNs into the mural thrombus: significantly inhibited
  infiltration of macrophages into the mural thrombus: significantly inhibited
  macrophage infiltration into the aneurysmal wall: did not reach statistical significance; also recorded: no change
[1]; Days 10 and 42, orcein staining
  elastic fibers of the media (elastic lamellae area): significant preservation
[1]; after 10 or 42 days
  SMC colonization of the wall: did not affect
[1]; treatment for 10 days, α-actin staining
  density of SMCs within the thrombus: did not modify
[1]; treatment for 42 days, α-actin staining
  SMC colonization of the thrombus: significantly improved
[2]; 10 mg/kg twice daily oral
  increase in aneurysmal diameter between Days 10 and 42: no increase in aneurysmal diameter was observed
[2]; [3]
  percent increase in external diameter vs control: significantly reduced
[2]; Day 42, X^2=11.6, P<0.001
  incidence of larger aneurysms (diameter >4 mm): predominated in the control group
[2]; male Lewis rats, 10 mg/kg twice daily oral, 10 days, n=9
  increase in external aneurysmal diameter: 197.3±52.8%
[2]; male Lewis rats, 10 mg/kg twice daily oral, Day 10
  mean external aneurysmal diameter: 2.22±0.56 mm
[2]; male Lewis rats, 10 mg/kg twice daily oral, Day 42, n=14
  mean external aneurysmal diameter: 3.61±1.46 mm
